{"source": "patent US11896573B2", "about": "“Pharmaceutical compositions and pharmacokinetics of a gamma-hydroxybutyric acid derivative” (priority 2020, dated 2024)", "test": "Multiple ascending dose study, plasma pharmacokinetics of Compound (1) and GHB", "format": "in vivo, human", "protocol": "The plasma concentrations of Compound (1) and GHB in plasma in healthy human subjects were measured using liquid chromatography tandem mass-spectroscopy and evaluated using PHOENIX™ WINNONLIN® version 8.1 (Pharsight Corporation, USA) and MICROSOFT® EXCEL® (Microsoft Corporation, USA).\nAll randomized subjects who received Compound (1), with available pharmacokinetic (PK) data and without relevant deviations interfering with the PK evaluations, were included. Subjects who received only placebo were excluded from the PK population. In addition, the PK population was used for the summaries and analyses of all PK data.\nA multiple ascending dose study was undertaken to evaluate the pharmacokinetics of multiple doses of Compound (1) in 3 cohorts of healthy subjects (with 8 subjects/cohort). Within each cohort, the subjects were randomized to receive Compound (1) or placebo at a ratio of 6:2 (active: placebo) for 7 days (or up to 9 days if the cohort included a titration period).\nAfter fasting for at least 3 hours following a standard meal, subjects were randomized on Day 1 and the first dose of study drug (either target dose or titration dose) was administered. The first cohort of subjects (Cohort 8) received the second dose administration at approximately four hours after receiving the first dose. The subsequent […] cohorts (Cohorts 9 and 10) received only one dose per day.\nFor the first cohort (Cohort 8), the dose used was 6.0 g divided into two equal doses four hours apart for 7 days starting from Day 4 “Dose Day 1” to Day 10 “Dose Day 7”. Subsequent Cohorts 9, 10 received a single daily dose of 4.5 g and 6.0 g during the titration period (Day 1 for Cohort 9, Day 1 and Day 2 for Cohort 10, and after a titration period for 7 days starting from Day 4 “Dose Day 1” to Day 10 “Dose Day 7”. Cohort 11 was not conducted due to API availability.", "key": {"[1]": {"settings": "Cohort 8 (6.0 g/day divided into equal 2 doses), Dosing Day 4"}, "[2]": {"settings": "Cohort 8 (6.0 g/day divided into equal 2 doses), Dosing Day 10"}, "[3]": {"settings": "Cohort 9 (4.5 g/day in a single dose), Dosing Day 4"}, "[4]": {"settings": "Cohort 9 (4.5 g/day in a single dose), Dosing Day 10"}, "[5]": {"settings": "Cohort 10 (6.0 g/day in a single dose), Dosing Day 4"}}}
{"smiles": "CC(C)[C@H](N)C(=O)OCCCC(=O)O", "note": "[Compound (1), 4-((L-valyl)oxy)butanoic acid]", "values": [{"measurement": "Compound (1) CL/F, Max", "setting": "[1]", "value": 597, "unit": "L/h"}, {"measurement": "Compound (1) CL/F, Mean", "setting": "[1]", "value": 431, "unit": "L/h"}, {"measurement": "Compound (1) CL/F, Median", "setting": "[1]", "value": 405, "unit": "L/h"}, {"measurement": "Compound (1) CL/F, Min", "setting": "[1]", "value": 315, "unit": "L/h"}, {"measurement": "Compound (1) plasma AUC0-inf, Max", "setting": "[1]", "value": 19100, "unit": "ng·h/mL"}, {"measurement": "Compound (1) plasma AUC0-inf, Min", "setting": "[1]", "value": 10100, "unit": "ng·h/mL"}, {"measurement": "Compound (1) plasma AUC0-tlast, Max", "setting": "[1]", "value": 19000, "unit": "ng·h/mL"}, {"measurement": "Compound (1) plasma AUC0-tlast, Min", "setting": "[1]", "value": 10000, "unit": "ng·h/mL"}, {"measurement": "Compound (1) plasma Cmax, Max", "setting": "[1]", "value": 16700, "unit": "ng/mL"}, {"measurement": "Compound (1) plasma Cmax, Min", "setting": "[1]", "value": 9600, "unit": "ng/mL"}, {"measurement": "Compound (1) plasma T1/2, Max", "setting": "[1]", "value": 112, "unit": "min"}, {"measurement": "Compound (1) plasma T1/2, Min", "setting": "[1]", "value": 13.2, "unit": "min"}, {"measurement": "Compound (1) plasma Tmax, Max", "setting": "[1]", "value": 270, "unit": "min"}, {"measurement": "Compound (1) CL/F, Max", "setting": "[2]", "value": 569, "unit": "L/h"}, {"measurement": "Compound (1) CL/F, Mean", "setting": "[2]", "value": 430, "unit": "L/h"}, {"measurement": "Compound (1) CL/F, Median", "setting": "[2]", "value": 430, "unit": "L/h"}, {"measurement": "Compound (1) CL/F, Min", "setting": "[2]", "value": 280, "unit": "L/h"}, {"measurement": "Compound (1) plasma AUC0-inf, Max", "setting": "[2]", "value": 21500, "unit": "ng·h/mL"}, {"measurement": "Compound (1) plasma AUC0-inf, Min", "setting": "[2]", "value": 10700, "unit": "ng·h/mL"}, {"measurement": "Compound (1) plasma AUC0-tlast, Max", "setting": "[2]", "value": 21400, "unit": "ng·h/mL"}, {"measurement": "Compound (1) plasma AUC0-tlast, Min", "setting": "[2]", "value": 10500, "unit": "ng·h/mL"}, {"measurement": "Compound (1) plasma Cmax, Max", "setting": "[2]", "value": 17000, "unit": "ng/mL"}, {"measurement": "Compound (1) plasma Cmax, Min", "setting": "[2]", "value": 8700, "unit": "ng/mL"}, {"measurement": "Compound (1) plasma T1/2, Max", "setting": "[2]", "value": 31.2, "unit": "min"}, {"measurement": "Compound (1) plasma T1/2, Min", "setting": "[2]", "value": 14.4, "unit": "min"}, {"measurement": "Compound (1) plasma Tmax, Max", "setting": "[2]", "value": 285, "unit": "min"}, {"measurement": "Compound (1) CL/F, Max", "setting": "[3]", "value": 406, "unit": "L/h"}, {"measurement": "Compound (1) CL/F, Mean", "setting": "[3]", "value": 378, "unit": "L/h"}, {"measurement": "Compound (1) CL/F, Median", "setting": "[3]", "value": 382, "unit": "L/h"}, {"measurement": "Compound (1) CL/F, Min", "setting": "[3]", "value": 338, "unit": "L/h"}, {"measurement": "Compound (1) plasma AUC0-inf, Max", "setting": "[3]", "value": 13300, "unit": "ng·h/mL"}, {"measurement": "Compound (1) plasma AUC0-inf, Min", "setting": "[3]", "value": 11100, "unit": "ng·h/mL"}, {"measurement": "Compound (1) plasma AUC0-tlast, Max", "setting": "[3]", "value": 13200, "unit": "ng·h/mL"}, {"measurement": "Compound (1) plasma AUC0-tlast, Min", "setting": "[3]", "value": 8300, "unit": "ng·h/mL"}, {"measurement": "Compound (1) plasma Cmax, Max", "setting": "[3]", "value": 17800, "unit": "ng/mL"}, {"measurement": "Compound (1) plasma Cmax, Min", "setting": "[3]", "value": 10500, "unit": "ng/mL"}, {"measurement": "Compound (1) plasma T1/2, Max", "setting": "[3]", "value": 40.8, "unit": "min"}, {"measurement": "Compound (1) plasma T1/2, Min", "setting": "[3]", "value": 16.8, "unit": "min"}, {"measurement": "Compound (1) CL/F, Max", "setting": "[4]", "value": 488, "unit": "L/h"}, {"measurement": "Compound (1) CL/F, Mean", "setting": "[4]", "value": 423, "unit": "L/h"}, {"measurement": "Compound (1) CL/F, Median", "setting": "[4]", "value": 443, "unit": "L/h"}, {"measurement": "Compound (1) CL/F, Min", "setting": "[4]", "value": 323, "unit": "L/h"}, {"measurement": "Compound (1) plasma AUC0-inf, Max", "setting": "[4]", "value": 13900, "unit": "ng·h/mL"}, {"measurement": "Compound (1) plasma AUC0-inf, Min", "setting": "[4]", "value": 9200, "unit": "ng·h/mL"}, {"measurement": "Compound (1) plasma AUC0-tlast, Max", "setting": "[4]", "value": 13800, "unit": "ng·h/mL"}, {"measurement": "Compound (1) plasma AUC0-tlast, Min", "setting": "[4]", "value": 9100, "unit": "ng·h/mL"}, {"measurement": "Compound (1) plasma Cmax, Max", "setting": "[4]", "value": 17800, "unit": "ng/mL"}, {"measurement": "Compound (1) plasma Cmax, Min", "setting": "[4]", "value": 9300, "unit": "ng/mL"}, {"measurement": "Compound (1) plasma T1/2, Max", "setting": "[4]", "value": 50.4, "unit": "min"}, {"measurement": "Compound (1) plasma T1/2, Min", "setting": "[4]", "value": 22.2, "unit": "min"}, {"measurement": "Compound (1) CL/F, Max", "setting": "[5]", "value": 684, "unit": "L/h"}, {"measurement": "Compound (1) CL/F, Mean", "setting": "[5]", "value": 390, "unit": "L/h"}, {"measurement": "Compound (1) CL/F, Median", "setting": "[5]", "value": 316, "unit": "L/h"}, {"measurement": "Compound (1) CL/F, Min", "setting": "[5]", "value": 265, "unit": "L/h"}, {"measurement": "Compound (1) plasma AUC0-inf, Max", "setting": "[5]", "value": 22700, "unit": "ng·h/mL"}, {"measurement": "Compound (1) plasma AUC0-inf, Min", "setting": "[5]", "value": 8800, "unit": "ng·h/mL"}, {"measurement": "Compound (1) plasma AUC0-tlast, Max", "setting": "[5]", "value": 22600, "unit": "ng·h/mL"}, {"measurement": "Compound (1) plasma AUC0-tlast, Min", "setting": "[5]", "value": 8700, "unit": "ng·h/mL"}, {"measurement": "Compound (1) plasma Cmax, Max", "setting": "[5]", "value": 28000, "unit": "ng/mL"}, {"measurement": "Compound (1) plasma Cmax, Min", "setting": "[5]", "value": 10500, "unit": "ng/mL"}, {"measurement": "Compound (1) plasma T1/2, Max", "setting": "[5]", "value": 30.6, "unit": "min"}, {"measurement": "Compound (1) plasma T1/2, Min", "setting": "[5]", "value": 20.4, "unit": "min"}]}
